Experimental data published in patent US9376454B2, “Beta-lactamase inhibitors” (priority 2013, dated 2016).

What was measured:
Assay type in all cases: biochemical
p99 AmpC β-lactamase = target: T1, p99 AmpC β-lactamase (Enterobacter cloacae, UniProt P05364); experiment: β-Lactamase inhibition enzyme assay, p99 AmpC
T1 construct: made in house; host or cells: E. coli BL21(DE3)
Experimental: (§1) For SHV-5, Kpc-2, p99AmpC and OXA-1 β-lactamases, E. coli BL21(DE3) bacterial cells carrying expression plasmids (expressed as native untagged proteins) for the individual β-lactamases were grown in 1 L of Superbroth (Teknova Inc. Hollister, Calif.) supplemented with 100 μg/ml kanamycin selection and 1×5052 (0.5% glycerol, 0.05% glucose and 0.2% α-lactose) at 35° C. for 18-20 hours. Cells were harvested by centrifugation (4,000×g, 4° C., 20 min), resuspended in 50 ml of 10 mM HEPES pH 7.5 ( 1/20 of the initial volume). The cells were lysed by sonication (5 pulses of 45 seconds) at 45 W on ice. The lysates were clarified by centrifugation at 10,000×g for 40 minutes at 4° C. Samples were diluted 5-fold in 50 mM sodium acetate pH 5.0, stored overnight at 4° C., after which they were centrifuged at 10,000×g for 30 minutes to clarify, and filtered through 0.45 μm filters. The samples were loaded onto a 5 ml Capto S sepharose cation exchange column (GE Healthcare) pre-equilibrated with 50 mM sodium acetate pH 5.0. The column was washed with 5 column volumes of 50 mM sodium acetate pH 5.0 to wash out unbound protein and a linear gradient of NaCl (0 to 500 mM) was used to elute the protein (over 16 CV) from the column. Fractions were assayed for β-lactamase activity using Centa (Calbiochem, Gibbstown, N.J.) or Nitrocefin (EMD Millipore chemicals, Darmstadt, Germany) as a reporter β-lactamase substrate for activity in the isolated fractions. Active fractions were pooled, concentrated and further purified by gel filtration chromatography on a Superdex 75 prep grade gel filtration column (GE Healthcare, Piscataway, N.J.) pre-equilibrated in 50 mM Hepes pH 7.5, 150 mM NaCl. Active fractions were pooled concentrated, quantitated by BCA protein determination (Thermo Scientific, Rockford, Ill.), dialyzed into PBS and frozen at −80° C. in 20% glycerol until use.
(§2) An equal volume of diluted enzyme stock was added, and the plates were incubated at 37° C. for 15 min. Nitrocefin was used as substrate for p99 AmpC, VIM-2 and OXA-1 and dispensed into each well at a final concentration of 100 μM. Absorbance at 486 nm was immediately monitored for 10 min using a Biotek Powerwave XS2 microplate spectrophotometer using the GEN5 softweare package (Biotek Instruments, Winooski Vt.). In an analogous fashion, imipenem was used as substrate for Kpc-2 and Cefotaxime was used for SHV-5, while changes in absorbance upon hydrolysis of the β-lactam ring were monitored at 300 nm and 260 nm respectively in UV-transparent 96-well microtiter assay plates. Maximum rates of hydrolysis were compared to those in control wells (without inhibitors), and percentages of enzyme inhibition were calculated for each concentration of inhibitor. The concentration of inhibitor needed to reduce the initial rate of hydrolysis of substrate by 50% (IC50) was calculated as the residual activity of β-lactamase at 486 nm using GraFit version 7 kinetics software package (Erithacus Software, Surrey, UK).

KPC-2 β-lactamase = target: T2, KPC-2 β-lactamase (Klebsiella pneumoniae, UniProt Q9F663); experiment: β-Lactamase inhibition enzyme assay, KPC-2; conditions: imipenem as substrate, 300 nm; 15 min at 37° C. with enzyme, PBS pH 7.4; read-out: Class A KPC-2 IC50
T2 construct: made in house; host or cells: E. coli BL21(DE3)
T2 sequence (Q9F663 25-293, looked up): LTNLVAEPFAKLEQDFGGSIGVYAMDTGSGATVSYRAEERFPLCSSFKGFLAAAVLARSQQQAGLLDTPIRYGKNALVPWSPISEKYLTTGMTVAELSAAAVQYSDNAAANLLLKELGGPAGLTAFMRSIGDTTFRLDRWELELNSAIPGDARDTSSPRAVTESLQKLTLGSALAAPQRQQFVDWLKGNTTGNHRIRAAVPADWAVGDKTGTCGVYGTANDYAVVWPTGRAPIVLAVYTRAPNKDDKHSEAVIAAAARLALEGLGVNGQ
Experimental: as §1, §2

OXA-1 β-lactamase = target: T3, OXA-1 β-lactamase (Escherichia coli, UniProt P13661); experiment: β-Lactamase inhibition enzyme assay, OXA-1; conditions: Nitrocefin 100 μM as substrate, 486 nm; 15 min at 37° C. with enzyme, PBS pH 7.4; read-out: Class D OXA-1 IC50
T3 construct: made in house; host or cells: E. coli BL21(DE3)
T3 sequence (P13661 26-276): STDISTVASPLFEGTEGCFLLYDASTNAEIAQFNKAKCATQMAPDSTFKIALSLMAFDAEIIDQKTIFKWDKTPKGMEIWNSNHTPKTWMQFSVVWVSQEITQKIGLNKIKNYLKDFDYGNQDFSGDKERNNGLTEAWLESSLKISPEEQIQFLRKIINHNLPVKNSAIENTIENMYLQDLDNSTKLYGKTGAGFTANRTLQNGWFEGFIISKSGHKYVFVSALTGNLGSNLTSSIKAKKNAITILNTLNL
Experimental: as §1, §2

[1] = target: T4, VIM-2 metallo β-lactamase (Pseudomonas aeruginosa, UniProt Q9K2N0); experiment: β-Lactamase inhibition enzyme assay, VIM-2; conditions: Nitrocefin 100 μM as substrate, 486 nm; 15 min at 37° C. with enzyme, PBS pH 7.4; read-out: Class B VIM-2 IC50
T4 construct: made in house; host or cells: E. coli BL21(DE3)
Experimental: as §1
For Vim-2 metallo β-lactamase, the procedure was identical with the following exceptions, first the protein was not pH adjusted to pH 5 with 50 mM sodium acetate, second, the chromatography step was changed to a 5 ml Q sepharose anion exchange column pre-equilibrated with 50 mM Hepes pH 7.5, and elution of the protein was achieved by a linear gradient of NaCl (0-600 mM). Finally, the VIM-2 purification required a second run (3rd step) on the Q sepharose anion exchange column to achieve acceptable purity (>90%).
as §2

SHV-5 β-lactamase = target: T5, SHV-5 β-lactamase (Klebsiella pneumoniae, UniProt P0A3M1); experiment: β-Lactamase inhibition enzyme assay, SHV-5
T5 construct: made in house; host or cells: E. coli BL21(DE3)
T5 sequence (P0A3M1 22-286): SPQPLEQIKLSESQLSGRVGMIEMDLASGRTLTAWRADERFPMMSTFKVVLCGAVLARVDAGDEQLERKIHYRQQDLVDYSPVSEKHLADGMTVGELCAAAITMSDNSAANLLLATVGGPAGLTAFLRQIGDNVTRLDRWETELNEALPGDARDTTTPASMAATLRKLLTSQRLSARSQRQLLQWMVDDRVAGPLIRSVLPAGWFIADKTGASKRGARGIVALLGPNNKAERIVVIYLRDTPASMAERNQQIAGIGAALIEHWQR
Experimental: as §1, §2

T1 sequence (P05364 21-381): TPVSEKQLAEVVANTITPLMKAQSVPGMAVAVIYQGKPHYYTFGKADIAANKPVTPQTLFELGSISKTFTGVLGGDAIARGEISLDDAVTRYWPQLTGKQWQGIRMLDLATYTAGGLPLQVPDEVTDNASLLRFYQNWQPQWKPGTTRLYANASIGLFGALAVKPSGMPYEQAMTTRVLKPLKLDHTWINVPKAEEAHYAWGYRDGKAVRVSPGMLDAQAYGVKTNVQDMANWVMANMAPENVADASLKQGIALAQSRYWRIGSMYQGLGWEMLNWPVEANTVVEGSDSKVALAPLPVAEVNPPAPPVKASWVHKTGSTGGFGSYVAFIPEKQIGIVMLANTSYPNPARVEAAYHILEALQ

Row | SMILES | IC50 (p99 AmpC β-lactamase) | IC50 (KPC-2 β-lactamase) | IC50 (OXA-1 β-lactamase) | IC50 [1] | IC50 (SHV-5 β-lactamase)
1 | CN1Cc2ccc(CC(=O)N[C@H]3Cc4cccc(C(=O)O)c4OB3O)cc2C1 [Example 48, (R)-2-Hydroxy-3-[2-(2-methyl-2,3-dihydro-1H-isoindol-5-yl)-acetylamino]-3,4-dihydro-2H-benzo[e][1,2]oxaborinine-8-carboxylic acid] | < 100 nM | < 100 nM | < 100 nM | < 100 nM | < 100 nM
2 | O=C(Cc1ccc2c(c1)CNCC2)N[C@H]1Cc2cccc(C(=O)O)c2OB1O [Example 51, (R)-2-Hydroxy-3-(2-1,2,3,4-tetrahydro-isoquinolin-7-yl-acetylamino)-3,4-dihydro-2H-benzo[e][1,2]oxaborinine-8-carboxylic acid] | < 100 nM | < 100 nM | < 100 nM | < 100 nM | < 100 nM
3 | O=C(N[C@H]1Cc2cccc(C(=O)O)c2OB1O)c1cnco1 [Example 52, (R)-2-Hydroxy-3-[(oxazole-5-carbonyl)-amino]-3,4-dihydro-2H-benzo[e][1,2]oxaborinine-8-carboxylic acid] | < 100 nM | < 100 nM | < 100 nM | 100 to 1000 nM | < 100 nM
4 | O=C(N[C@H]1Cc2cccc(C(=O)O)c2OB1O)c1ccc2c(c1)CN(Cc1cccnc1)C2 [Example 12, (R)-2-hydroxy-3-(2-(pyridin-3-ylmethyl)isoindoline-5-carboxamido)-3,4-dihydro-2H-benzo[e][1,2]oxaborinine-8-carboxylic acid] | < 100 nM | < 100 nM | < 100 nM | 100 to 1000 nM | < 100 nM
5 | CN1CCc2c(C(=O)N[C@H]3Cc4cccc(C(=O)O)c4OB3O)csc2C1 [Example 6, (R)-2-hydroxy-3-(6-methyl-4,5,6,7-tetrahydrothieno[2,3-c]pyridine-3-carboxamido)-3,4-dihydro-2H-benzo[e][1,2]oxaborinine-8-carboxylic acid] | < 100 nM | < 100 nM | < 100 nM | 1000 to 10000 nM | < 100 nM
6 | NCCOc1ccc(CC(=O)N[C@H]2Cc3cccc(C(=O)O)c3OB2O)cc1O [Example 59, (R)-3-(2-(4-(2-aminoethoxy)-3-hydroxyphenyl)acetamido)-2-hydroxy-3,4-dihydro-2H-benzo[e][1,2]oxaborinine-8-carboxylic acid] | < 100 nM | < 100 nM | < 100 nM | 100 to 1000 nM | < 100 nM
7 | O=C(Cc1cnc2c(c1)CCCN2)N[C@H]1Cc2cccc(C(=O)O)c2OB1O [Example 13, (R)-2-hydroxy-3-(2-(5,6,7,8-tetrahydro-1,8-naphthyridin-3-yl)acetamido)-3,4-dihydro-2H-benzo[e][1,2]oxaborinine-8-carboxylic acid] | < 100 nM | 100 to 1000 nM | < 100 nM | 1000 to 10000 nM | < 100 nM
8 | NCCN1Cc2ccc(C(=O)N[C@H]3Cc4cccc(C(=O)O)c4OB3O)cc2C1 [Example 11, (R)-3-(2-(2-aminoethyl)isoindoline-5-carboxamido)-2-hydroxy-3,4-dihydro-2H-benzo[e][1,2]oxaborinine-8-carboxylic acid] | < 100 nM | < 100 nM | < 100 nM | 100 to 1000 nM | < 100 nM
9 | NCCNc1ccc(CC(=O)N[C@H]2Cc3cccc(C(=O)O)c3OB2O)cn1 [Example 60, (R)-3-(2-(6-(2-aminoethylamino)pyridin-3-yl)acetamido)-2-hydroxy-3,4-dihydro-2H-benzo[e][1,2]oxaborinine-8-carboxylic acid] | < 100 nM | < 100 nM | < 100 nM | 100 to 1000 nM | < 100 nM
10 | O=C1Cc2cc(C(=O)N[C@H]3Cc4cccc(C(=O)O)c4OB3O)ccc2N1 [Example 33, (R)-2-Hydroxy-3-[(2-oxo-2,3-dihydro-1H-indole-5-carbonyl)-amino]-3,4-dihydro-2H-benzo[e][1,2]oxaborinine-8-carboxylic acid] | < 100 nM | < 100 nM | < 100 nM | 100 to 1000 nM | < 100 nM
11 | CC(C)NCc1ccc(C(=O)N[C@H]2Cc3cccc(C(=O)O)c3OB2O)cc1CNC(C)C [Example 56, (R)-3-(3,4-bis((isopropylamino)methyl)benzamido)-2-hydroxy-3,4-dihydro-2H-benzo[e][1,2]oxaborinine-8-carboxylic acid] | < 100 nM | < 100 nM | < 100 nM | 100 to 1000 nM | < 100 nM
12 | O=C(Cc1ccc2cc[nH]c2c1)N[C@H]1Cc2cccc(C(=O)O)c2OB1O [Example 46, (R)-2-Hydroxy-3-(2-1H-indol-6-yl-acetylamino)-3,4-dihydro-2H-benzo[e][1,2]oxaborinine-8-carboxylic acid] | < 100 nM | < 100 nM | < 100 nM | < 100 nM | < 100 nM
13 | O=C(N[C@H]1Cc2cccc(C(=O)O)c2OB1O)c1ccc2nc[nH]c2c1 [Example 34, (R)-3-[(3H-Benzoimidazole-5-carbonyl)-amino]-2-hydroxy-3,4-dihydro-2H-benzo[e][1,2]oxaborinine-8-carboxylic acid] | < 100 nM | < 100 nM | < 100 nM | 100 to 1000 nM | < 100 nM
14 | O=C(O)c1cccc2c1OB(O)[C@@H](NC(=O)C1(c3ccccc3)CC1)C2 [Example 1, (R)-2-hydroxy-3-(1-phenylcyclopropanecarboxamido)-3,4-dihydro-2H-benzo[e][1,2]oxaborinine-8-carboxylic acid] | < 100 nM | < 100 nM | < 100 nM | 100 to 1000 nM | < 100 nM
15 | NCc1ccc(C(=O)N[C@H]2Cc3cccc(C(=O)O)c3OB2O)cc1CN [Example 14, (R)-3-(3,4-bis(aminomethyl)benzamido)-2-hydroxy-3,4-dihydro-2H-benzo[e][1,2]oxaborinine-8-carboxylic acid] | < 100 nM | 100 to 1000 nM | < 100 nM | < 100 nM | 100 to 1000 nM
16 | NC1=NCc2ccc(C(=O)N[C@H]3Cc4cccc(C(=O)O)c4OB3O)cc2CN1 [Example 17, (R)-3-(3-amino-4,5-dihydro-1H-benzo[e][1,3]diazepine-7-carboxamido)-2-hydroxy-3,4-dihydro-2H-benzo[e][1,2]oxaborinine-8-carboxylic acid] | < 100 nM | < 100 nM | < 100 nM | < 100 nM | < 100 nM
17 | Cn1ccc2ccc(C(=O)N[C@H]3Cc4cccc(C(=O)O)c4OB3O)cc21 [Example 43, (R)-2-Hydroxy-3-[(1-methyl-1H-indole-6-carbonyl)-amino]-3,4-dihydro-2H-benzo[e][1,2]oxaborinine-8-carboxylic acid] | < 100 nM | < 100 nM | < 100 nM | 100 to 1000 nM | 100 to 1000 nM
18 | O=C(Cc1ccc(O)c(O)c1)N[C@H]1Cc2cccc(C(=O)O)c2OB1O [Example 38, (R)-3-(2-(3,4-dihydroxyphenyl)acetamido)-2-hydroxy-3,4-dihydro-2H-benzo[e][1,2]oxaborinine-8-carboxylic acid] | < 100 nM | < 100 nM | < 100 nM | 100 to 1000 nM | < 100 nM
